From patent publication US20240218022A1, “ANTI-VISTA MACROCYCLIC PEPTIDES AND COMPOSITIONS” (BRISTOL-MYERS SQUIBB COMPANY, priority 2022, published 2024)
Read-outs that look alike come from different tables or passages of the source. Each block holds one compound with its values, some of them ahead of it. Starred links: 1 amine or outer side, 2 acyl side, 3 side chain; linkers in the order of their positions; H or OH if unused. Positions of bridges follow the written chain, without caps; N, C: chain ends. Non-standard residues stand in square brackets, D forms with d. Residues, ends and D or L forms follow the SMILES beside them. Phe(3-Cl) = N[C@@H](Cc1cccc(Cl)c1)C(=O)O; Phe(3-Me) = Cc1cccc(C[C@H](N)C(=O)O)c1; γGlu = O=C(O)[C@H](CCC(=O)[*:2])N[*:1]; βAsp = O=C(O)[C@H](CC(=O)[*:2])N[*:1]; Cit = NC(=O)NCCC[C@H](N)C(=O)O; Ahp(2) = CCCCC[C@H](N)C(=O)O; NMeNle = CCCC[C@H](NC)C(=O)O; Tle = CC(C)(C)[C@H](N)C(=O)O; NMeS = CN[C@@H](CO)C(=O)O; NHexGly = CCCCCCNCC(=O)O; Nle = CCCC[C@H](N)C(=O)O; Orn = NCCC[C@H](N)C(=O)O; Aun = NCCCCCCCCCCC(=O)O; AEEA = NCCOCCOCC(=O)O

Biological target: T1, mouse VISTA (mVISTA) (Mus musculus, UniProt Q9D659)
T1 construct: expressed in transfected cells; host or cells: Human embryonic kidney 293T cells
T1 sequence (Q9D659 33-308): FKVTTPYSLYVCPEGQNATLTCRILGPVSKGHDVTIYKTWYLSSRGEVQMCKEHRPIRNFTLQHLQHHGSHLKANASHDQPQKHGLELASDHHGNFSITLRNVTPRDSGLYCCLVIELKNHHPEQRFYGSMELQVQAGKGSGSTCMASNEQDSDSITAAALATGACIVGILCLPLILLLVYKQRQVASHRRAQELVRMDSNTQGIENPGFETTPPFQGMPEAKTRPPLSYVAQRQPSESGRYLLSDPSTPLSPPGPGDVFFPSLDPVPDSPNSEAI
Test: Cell-Based Binding High-Content Assay For mVISTA (HC CBA mVISTA)
Method: Cell-Based Binding High-Content Assay For mVISTA
Human embryonic kidney 293T cells (293T) expressing mouse VISTA (mVISTA) were used for the assessment of compounds competing with the binding of a biotinylated peptide. Cryopreserved cells were thawed in a 37° C. water bath and incubated overnight at a 37° C./5% CO2 incubator in assay culture media DMEM (Life Technologies Inc. Cat. No. 11995-126) supplemented with 10% (v/v) FBS (Sigma, Cat. No. F4135), 1× Penicillin/Streptomycin (Life Technologies Inc. Cat. No. 15140-122). Cells were harvested, washed and resuspended in DMEM media […]. To test compounds under “no-wash” condition, cells were seeded into PDL-coated 384 well plates (Corning, Cat. No. 356663) at 4,000 cells/20 μL. After incubating the cell plates for two hours at a 37° C./5% CO2 incubator, 125 nL of test compound was added using an ECHO. Alternatively, to test compounds under “wash” condition, test compounds were added first, followed by addition of 20 μL cells at a density of 4000 cells/well. After incubation for an hour, the media was removed, followed by addition of 20 μL of fresh media ( ), and plates were then incubated for another hour. To plates either under “no wash” or “wash” condition, the biotinylated peptide was added to a final concentration of 2 nM, and plates were incubated at room temperature for 30 minutes. Fifteen (15) μL of Alexa 647 conjugated Streptavidin (Life Tech, Cat. No. S21374), suspended at 2 μg/ml in media, was added to the assay plate and incubate for 30 minutes. Cells were fixed by adding 15 μL of formaldehyde at a final concentration of 8% (w/v) (Sigma Cat. No. 252549), 20 μg/mL Hoechst (Thermo Scientific Cat. No. 62249) in PBS for 10 minutes at room temperature. The plates were washed 3 times in dPBS, sealed, and read on a CellInsight NXT High Content Screening Platform IC903000 (Thermo Scientific). The 50% effective concentration (IC50) was calculated using the four-parameter logistic formula y=A+((B−A)/(1+((C/x)^D))), where A and B denote minimal and maximal % inhibition, respectively, C is the EC50, D is hill slope and x represent compound concentration.

[1] = cell-based binding high-content assay, mVISTA, read-out: HC CBA miPr ISTA IC50
[2] = 293T cells expressing mouse VISTA, competition with biotinylated peptide (2 nM), read-out: HC CBA mVISTA IC50

IC50 (read-out: HC CBA mVISTA IC50): 22.1 nM
SMILES: CCCCCCN1CC(=O)N[C@@H](Cc2ccc(O)cc2)C(=O)N[C@@H](CCCC)C(=O)N[C@@H](CC(N)=O)C(=O)N[C@@H](CCCNC(=N)N)C(=O)N(C)[C@@H](CCCC)C(=O)N[C@@H](CCCCC)C(=O)N2CCC[C@H]2C(=O)N[C@@H](C(C)C)C(=O)N[C@@H](CC(=O)O)C(=O)N[C@H](C(=O)NCC(=O)O)CSCC(=O)N[C@@H](Cc2cccc(C)c2)C(=O)N[C@@H](Cc2ccc(O)cc2)C(=O)N[C@@H](CC(=O)O)C1=O [compound 1211] ({CH2CO}-[Phe(3-Me)]YD[NHexGly]Y[Nle]NR[NMeNle][Ahp(2)]PVDCG-OH; thioether N-14)

IC50 (the 20th table, scaffold drawing 23, read-out: HC CBA mVISTA IC50): 15.5 nM
SMILES: CCCCCCN1CC(=O)N[C@@H](Cc2ccc(O)cc2)C(=O)N[C@@H](CCCC)C(=O)NCC(=O)N[C@@H](CCCNC(=N)N)C(=O)N[C@@H](CC(C)C)C(=O)N[C@@H](CCCCC)C(=O)N2CCC[C@H]2C(=O)N[C@@H](C(C)C)C(=O)N[C@@H](CC(=O)O)C(=O)N[C@H](C(=O)NCC(=O)O)CSCC(=O)N[C@@H](Cc2ccc(O)cc2)C(=O)N[C@@H](Cc2ccccc2)C(=O)N[C@@H](CC(=O)O)C1=O [compound 1472] ({CH2CO}-YFD[NHexGly]Y[Nle]GRL[Ahp(2)]PVDCG-OH; thioether N-14)

IC50 [1]: 21.5 nM
SMILES: CCCCCCN1CC(=O)N[C@@H](Cc2ccc(O)cc2)C(=O)N[C@@H](C)C(=O)N[C@@H](CC(N)=O)C(=O)N[C@@H](CCCN)C(=O)N(C)[C@@H](CCCC)C(=O)N[C@@H](CCCCC)C(=O)N2CCC[C@H]2C(=O)N[C@@H](C(C)(C)C)C(=O)N[C@@H](CO)C(=O)N[C@H](C(=O)N[C@@H](CC(=O)NCCOCCOCC(=O)N[C@@H](CC(=O)O)C(=O)NCCOCCOCC(=O)NCCCCCCCCCCC(=O)O)C(=O)O)CSCC(=O)N[C@@H](Cc2ccccc2)C(=O)N[C@@H](Cc2ccc(O)cc2)C(=O)N[C@@H](CC(=O)O)C1=O [compound 2061] ({CH2CO}-FYD[NHexGly]YAN[Orn][NMeNle][Ahp(2)]P[Tle]SC[βAsp][AEEA]D[AEEA][Aun]-OH; thioether N-14)

IC50 [1]: 16.4 nM
SMILES: CCCCCCN1CC(=O)N[C@@H](Cc2ccc(O)cc2)C(=O)N[C@@H](CCCC)C(=O)NCC(=O)N[C@@H](CCCNC(=N)N)C(=O)N[C@@H](CC(C)C)C(=O)N[C@@H](CCCCC)C(=O)N2CCC[C@H]2C(=O)N[C@@H](C(C)C)C(=O)N[C@@H](CC(=O)O)C(=O)N[C@H](C(=O)NCC(=O)NCCOCCOCC(=O)N[C@@H](CC(=O)O)C(=O)NCCOCCOCC(=O)NCCCCCCCCCCC(=O)O)CSCC(=O)N[C@@H](Cc2cccc(C)c2)C(=O)N[C@@H](Cc2ccc(O)cc2)C(=O)N[C@@H](CC(=O)O)C1=O [compound 2014] ({CH2CO}-[Phe(3-Me)]YD[NHexGly]Y[Nle]GRL[Ahp(2)]PVDCG[AEEA]D[AEEA][Aun]-OH; thioether N-14)

IC50 (read-out: HC CBA mVISTA IC50): 32.2 nM
SMILES: CCCCCCN1CC(=O)N[C@@H](Cc2ccc(O)cc2)C(=O)N[C@@H](CCCC)C(=O)N[C@@H](CC(N)=O)C(=O)N[C@@H](CCCNC(=N)N)C(=O)N[C@@H](CC(C)C)C(=O)N[C@@H](CCCCC)C(=O)N2CCC[C@H]2C(=O)N[C@@H](C(C)(C)C)C(=O)N[C@@H](C(C)C)C(=O)N[C@H](C(=O)NCCOCCOCC(=O)N[C@@H](CCC(=O)NCCOCCOCC(=O)NCCCCCCCCCCC(=O)O)C(=O)O)CSCC(=O)N[C@@H](Cc2ccccc2)C(=O)N[C@@H](Cc2ccc(O)cc2)C(=O)N[C@@H](CC(=O)O)C1=O [compound 2234] ({CH2CO}-FYD[NHexGly]Y[Nle]NRL[Ahp(2)]P[Tle]VC[AEEA][γGlu][AEEA][Aun]-OH; thioether N-14)

IC50 (read-out: HC CBA mVISTA IC50): 27.7 nM
SMILES: CCCCCCN1CC(=O)N[C@@H](Cc2ccc(O)cc2)C(=O)N[C@@H](CC(C)C)C(=O)N[C@@H](CC(N)=O)C(=O)N[C@@H](CCCNC(=N)N)C(=O)N(C)[C@@H](CCCC)C(=O)N[C@@H](CCCCC)C(=O)N2CCC[C@H]2C(=O)N[C@@H](C(C)C)C(=O)N[C@@H](CO)C(=O)N[C@H](C(=O)NCC(N)=O)CSCC(=O)N[C@@H](Cc2cccc(Cl)c2)C(=O)N[C@@H](Cc2ccc(O)cc2)C(=O)N[C@@H](CC(=O)O)C1=O [compound 1208] ({CH2CO}-[Phe(3-Cl)]YD[NHexGly]YLNR[NMeNle][Ahp(2)]PVSCG-NH2; thioether N-14)

IC50 (the 19th table, scaffold drawing 22, read-out: HC CBA mVISTA IC50): 22.4 nM
SMILES: CCCCCCN1CC(=O)N[C@@H](Cc2ccc(O)cc2)C(=O)N[C@@H](CCCC)C(=O)N[C@@H](CC(=O)O)C(=O)N[C@@H](CCCNC(N)=O)C(=O)N(C)[C@@H](CCCC)C(=O)N[C@@H](CCCCC)C(=O)N2CCC[C@H]2C(=O)N[C@@H](C(C)C)C(=O)N[C@@H](CC(=O)O)C(=O)N[C@H](C(=O)N[C@@H](CC(=O)O)C(N)=O)CSCC(=O)N[C@@H](Cc2cccc(C)c2)C(=O)N[C@@H](Cc2c[nH]c3ccccc23)C(=O)N[C@@H](CC(=O)O)C1=O [compound 1438] ({CH2CO}-[Phe(3-Me)]WD[NHexGly]Y[Nle]D[Cit][NMeNle][Ahp(2)]PVDCD-NH2; thioether N-14)

IC50 [2]: 13.6 nM
SMILES: CCCCCCN1CC(=O)N[C@@H](Cc2ccc(O)cc2)C(=O)N[C@@H](CCCC)C(=O)N[C@@H](CC(=O)O)C(=O)N[C@@H](CCCNC(=N)N)C(=O)N[C@@H](CC(C)C)C(=O)N[C@@H](CCCCC)C(=O)N2CCC[C@H]2C(=O)N[C@@H](C(C)C)C(=O)NCC(=O)N[C@H](C(=O)NCC(=O)O)CSCC(=O)N[C@@H](Cc2ccccc2)C(=O)N[C@@H](Cc2ccc(O)cc2)C(=O)N[C@@H](CC(=O)O)C1=O [Example 1024] ({CH2CO}-FYD[NHexGly]Y[Nle]DRL[Ahp(2)]PVGCG-OH; thioether N-14)

IC50 (read-out: HC CBA mVISTA IC50): 5.3 nM
SMILES: CCCCCCN1CC(=O)N[C@@H](Cc2ccc(O)cc2)C(=O)N[C@@H](CCCC)C(=O)N[C@@H](CC(N)=O)C(=O)N[C@@H](CCCNC(N)=O)C(=O)N(C)[C@@H](CCCC)C(=O)N[C@@H](CCCCC)C(=O)N2CCC[C@H]2C(=O)N[C@@H](C(C)C)C(=O)N[C@@H](CC(=O)O)C(=O)N[C@H](C(=O)NCC(=O)O)CSCC(=O)N[C@@H](Cc2ccccc2)C(=O)N[C@@H](Cc2c[nH]c3ccccc23)C(=O)N[C@@H](CC(=O)O)C1=O [Example 1387] ({CH2CO}-FWD[NHexGly]Y[Nle]N[Cit][NMeNle][Ahp(2)]PVDCG-OH; thioether N-14)

IC50 [2]: 27.1 nM
SMILES: CCCCCCN1CC(=O)N[C@@H](Cc2ccc(O)cc2)C(=O)N[C@@H](CC(C)C)C(=O)NCC(=O)N[C@@H](CCCNC(=N)N)C(=O)N[C@@H](CCCCN)C(=O)N[C@@H](CCCCC)C(=O)N2CCC[C@H]2C(=O)N[C@@H](C(C)C)C(=O)N[C@@H](CO)C(=O)N[C@H](C(=O)NCC(N)=O)CSCC(=O)N[C@@H](Cc2ccccc2)C(=O)N[C@@H](Cc2ccc(O)cc2)C(=O)N[C@@H](CC(=O)O)C1=O [Example 1092] ({CH2CO}-FYD[NHexGly]YLGRK[Ahp(2)]PVSCG-NH2; thioether N-14)

IC50 (cell-based binding high-content assay, mVISTA, read-out: HC CBA miPrISTA IC50): 29.9 nM
SMILES: CCCCCCN1CC(=O)N[C@@H](Cc2ccc(O)cc2)C(=O)N[C@@H](CC(C)C)C(=O)N[C@@H](CC(N)=O)C(=O)N[C@@H](CCCNC(=N)N)C(=O)N(C)[C@@H](CO)C(=O)N[C@@H](CCCCC)C(=O)N2CCC[C@H]2C(=O)N[C@@H](C(C)(C)C)C(=O)N[C@@H](CO)C(=O)N[C@H](C(=O)N[C@@H](CC(=O)NCCOCCOCC(=O)N[C@@H](CC(=O)O)C(=O)NCCOCCOCC(=O)NCCCCCCCCCCC(=O)O)C(=O)O)CSCC(=O)N[C@@H](Cc2ccccc2)C(=O)N[C@@H](Cc2ccc(O)cc2)C(=O)N[C@@H](CC(=O)O)C1=O [compound 2068] ({CH2CO}-FYD[NHexGly]YLNR[NMeS][Ahp(2)]P[Tle]SC[βAsp][AEEA]D[AEEA][Aun]-OH; thioether N-14)
